According to patent US20240024291A1, “Uses of Dihydroorotate Dehydrogenase Inhibitors” (University of Maryland, Baltimore, priority 2022, published 2024):

Legend:
[1] = test system: Mayo 6; experiment: Approved Oncology Drugs Set screen alone and combined with DHODHi; conditions: for Alone (growth, drug alone): Mayo 6, drug alone; for Combination (growth, drug combined with DHODHi): Mayo 6, drug combined with DHODHi (10 μM)
Method: To identify potential small molecules that can synergize with DHODHi, the Approved Oncology Drugs Set (NIH Developmental Therapeutics Program) was screened alone and combined with DHODHi (10 μM) against Mayo 6.

[2] = test system: Mayo 39 neurospheres; experiment: Sorafenib and DHODHi combination, SynergyFinder; format: cell-based, human; conditions: Mayo 39 GBMs
[3] = test system: Mayo 6 neurospheres; experiment: Sorafenib and DHODHi combination, SynergyFinder
[4] = test system: EGFRviii expressing 08-387 and 913 glioblastoma cells; experiment: Gemcitabine sensitization assay (Alamar blue); format: cell-based, human; conditions: varying dosages of gemcitabine and 0.05 nM of compound 1
Method: Ten thousand 08-387 or 913 glioblastoma cells per well were seeded in a 96 well plate. […] Post 72 hr of treatment, cell viability was calculated on Alamar blue absorbance reading.
To further evaluate the potential role of EGFR in compound 1 resistance, the 913 and 08-387 neurosphere lines were transduced with lentiviruses encoding EGFRvIll or GFP (as control) and these neurospheres were challenged with a relatively high dose of 1 mM compound 1.

C=CC(=O)Nc1cc(Nc2nccc(-c3cn(C)c4ccccc34)n2)c(OC)cc1N(C)CCN(C)C [Osimertinib, osimertinib]
Alone (growth, drug alone) [1]: 0.35
Combination (growth, drug combined with DHODHi) [1]: 0.0001

CNC(=O)c1cc(Oc2ccc(NC(=O)Nc3ccc(Cl)c(C(F)(F)F)c3)c(F)c2)ccn1 [Regorafenib, regorafenib]
Alone (growth, drug alone) [1]: 1.00
Combination (growth, drug combined with DHODHi) [1]: 0.64

CNC(=O)c1cc(Oc2ccc(NC(=O)Nc3ccc(Cl)c(C(F)(F)F)c3)cc2)ccn1 [Sorafenib]
sensitization to DHODHi by Sorafenib [2]: moderately sensitized
most synergistic area score ([3]; Mayo 6, Sorafenib in combination with DHODHi): 10.48
sensitization to DHODHi by Sorafenib ([3]; Mayo 6 GBMs, SynergyFinder): moderately sensitized

Nc1ccn([C@@H]2O[C@H](CO)[C@@H](O)C2(F)F)c(=O)n1 [gemcitabine, reference compound]
sensitivity of glioblastomas to gemcitabine [4]: sensitive
